Results from paper PMC4553520, “Laboratory and Simulated Field Bioassays to Evaluate Larvicidal Activity of Pinus densiflora Hydrodistillate, Its Constituents and Structurally Related Compounds against Aedes albopictus, Aedes aegypti and Culex pipiens pallens in Relation to Their Inhibitory Effects on Acetylcholinesterase Activity” (Insects, 2013).
Values after ≈ are worked out from the molar mass of the structure shown.

Legend:
[1] = system: early third-instar larvae of Ae. albopictus; experiment: Direct-contact mortality bioassay, Ae. albopictus larvae; settings: for LC50 (Ae. albopictus), mg/L (95% CL): early third-instar larvae, 24 h exposure, direct contact; for LC50: Aedes albopictus, 24 h, read-out: LC50 (Ae. albopictus), mg/L (95% CL)
Experimental: (§1) Direct-contact mortality bioassays were employed to evaluate the toxicity of all compounds, using early third-instar larvae of each mosquito species. Each compound was dissolved in methanol, and then further diluted in distilled water containing Triton X-100 (20 µL/L). Groups of 20 mosquito larvae of each species were put into separate paper cups (270 mL), each containing different compound solutions (250 mL). The toxicity of each compound was determined by repeating this experimental procedure with different concentrations, ranging from 5 to 200 mg/L. Temephos and fenthion served as standard references and were similarly formulated as well. Controls contained only methanol-Triton X-100 carrier solution in distilled water.
(§2) Both treated and control larvae were kept under the same conditions as those used for colony maintenance. […] Due to certain constraints arising from the number of available larvae, all necessary bioassays could not be conducted simultaneously and thus, treatments were conducted over a period of time, with a separate control treatment included each time. Freshly prepared compound solutions were used for each round of bioassays. All bioassays were repeated three times.
(§3) Concentration-mortality data were subjected to probit analysis using SAS [20]. […] Furthermore, for the compounds tested in AChE inhibition assays, a correlation analysis between their LC50 values and IC50 values was conducted using SAS [20].

[2] = system: early third-instar larvae of Ae. aegypti; experiment: Direct-contact mortality bioassay, Ae. aegypti larvae; settings: for LC50 (Ae. aegypti), mg/L (95% CL): early third-instar larvae, 24 h exposure, direct contact; for LC50: Aedes aegypti, 24 h, read-out: LC50 (Ae. aegypti), mg/L (95% CL)
Experimental: as §1, §2, §3

[3] = system: early third-instar larvae of Cx. p. pallens; experiment: Direct-contact mortality bioassay, laboratory-reared Cx. p. pallens larvae; settings: for LC50 (Cx p. pallens), mg/L (95% CL): laboratory-reared early third-instar larvae, 24 h exposure, direct contact; for LC50: Culex pipiens, 24 h, read-out: LC50 (Cx p. pallens), mg/L (95% CL)
Experimental: as §1, §2, §3

[4] = system: field-collected larvae of Cx. p. pallens; experiment: Semi-field bioassay, field-collected Cx. p. pallens larvae; settings: for LC50: Culex pipiens, 24 h, read-out: LC50, mg/L, Field-collected; for Resistance ratio: field-collected vs laboratory-reared Cx. p. pallens larvae (LC50 ratio)
Experimental: Larvae of wild mosquitoes were field-collected from irrigated rice fields in Yongin, Korea in early August 2012. A satellite view of the larvae collection site is included in Figure 1 [13].
The buckets were treated with test compounds and covered with nylon mesh screen to prevent other mosquitoes and insects from laying eggs. The buckets were then placed back at the initial collection site and were allowed to stand for 24 h, after which the mortality data were recorded. Temephos and fenthion served as standard references.
as §3

Molecule | LC50 (Ae. albopictus), mg/L (95% CL) [1] | LC50 (Ae. aegypti), mg/L (95% CL) [2] | LC50 (Cx p. pallens), mg/L (95% CL) [3] | LC50 [1] [mg/L] | LC50 [2] [mg/L] | LC50 [3] [mg/L] | LC50 [4] [mg/L] | Resistance ratio [4]
C=C1CC[C@H]2O[C@]2(C)CC[C@@H]2[C@@H]1CC2(C)C [Caryophyllene oxide] | 107.62 (99.82–116.81) mg/L | 113.00 (104.54–123.59) mg/L | 126.28 (110.92–158.13) mg/L |  |  |  |  | 
COP(=S)(OC)Oc1ccc(SC)c(C)c1 [Fenthion, reference compound] |  |  |  | 0.012 (≈ 0.0431 µM) | 0.022 (≈ 0.079 µM) | 0.027 (≈ 0.097 µM) | 3.12 (≈ 11.2 µM) | 115.56
CC(C)=CCC/C(C)=C/CO [Geraniol] |  |  |  | 68.2 (≈ 442 µM) | 73.4 (≈ 476 µM) | 57 (≈ 369 µM) |  | 
CC(=O)OC/C=C(\C)CCC=C(C)C [Geranyl acetate] |  |  |  | 33 | 21.4 | 30.3 |  | 
C=CC(C)(O)CCC=C(C)C (centres unmarked) [Linalool] |  |  |  | 129 (≈ 837 µM) | 113 (≈ 736 µM) | 144 (≈ 935 µM) |  | 
C=CC(C)(CCC=C(C)C)OC(C)=O (centres unmarked) [Linanyl acetate] |  |  |  | 98.1 | 97.8 | 97 |  | 
CC1CCC(C(C)C)C(O)C1 (centres unmarked) [Menthol] |  |  |  | 69.6 (≈ 445 µM) | 81.2 (≈ 520 µM) | 67.3 (≈ 430 µM) |  | 
C=CC(=C)CCC=C(C)C [Myrcene, β-myrcene] |  |  |  | 36 (≈ 264 µM) | 39.5 (≈ 290 µM) | 41.3 (≈ 303 µM) |  | 
CC(C)=CCC/C(C)=C\CO [Nerol] |  |  |  | 112 (≈ 723 µM) | 121 (≈ 783 µM) | 111 (≈ 723 µM) |  | 
COP(=S)(OC)Oc1ccc(Sc2ccc(OP(=S)(OC)OC)cc2)cc1 [Temephos, reference compound] |  |  |  | 0.01 (≈ 0.0214 µM) | 0.015 (≈ 0.0322 µM) | 0.013 (≈ 0.0279 µM) | 1.68 (≈ 3.6 µM) | 129.23
CC(=O)OC(C)(C)C1CC=C(C)CC1 (centres unmarked) [Terpinyl acetate] | 72.39 (65.05–80.55) mg/L | 96.32 (89.89–103.04) mg/L | 58.27 (52.60–64.82) mg/L |  |  |  |  | 
Cc1cccc(C(C)C)c1 [m-cymene] |  |  |  | 62 (≈ 462 µM) | 69.7 (≈ 519 µM) | 59.4 (≈ 442 µM) |  | 
Cc1ccccc1C(C)C [o-cymene] | 48.57 (42.14–55.77) mg/L | 39.60 (33.25–46.71) mg/L | 47.78 (40.96–55.39) mg/L |  |  |  |  | 
Cc1ccc(C(C)C)cc1 [p-cymene] |  |  |  | 32.8 (≈ 245 µM) | 33.5 (≈ 249 µM) | 29.7 (≈ 221 µM) |  | 
CC1=CC[C@H](C(C)C)C=C1 [α-phellandrene] |  |  |  | 16.9 (≈ 124 µM) | 19.4 (≈ 142 µM) | 14 (≈ 103 µM) |  | 
CC1=CC=C(C(C)C)CC1 [α-terpinene] |  |  |  | 21.9 (≈ 161 µM) | 24.9 (≈ 182 µM) | 23.9 (≈ 175 µM) |  | 
CC1=CCC(=C(C)C)CC1 [α-terpinolene] |  |  |  | 13.9 (≈ 102 µM) | 15.3 (≈ 112 µM) | 10.6 (≈ 78 µM) | 13.9 (≈ 102 µM) | 1.31
C=C1CC/C=C(\C)CC[C@@H]2[C@@H]1CC2(C)C [β-caryophyllene] |  |  |  | 39.5 (≈ 193 µM) | 38.6 (≈ 189 µM) | 47.8 (≈ 234 µM) |  | 
CC1=CCC(C(C)C)=CC1 [γ-terpinene] |  |  |  | 16.2 (≈ 119 µM) | 20.5 (≈ 150 µM) | 17.8 (≈ 130 µM) |  | 
CC1=CCC2C(C1)C2(C)C (centres unmarked) [δ-3-carene] |  |  |  | 9.33 (≈ 68.5 µM) | 12.1 (≈ 88.8 µM) | 10.1 (≈ 74.2 µM) | 12.7 (≈ 93 µM) | 1.25
(−)-terpinen-4-ol | 92.16 (84.28–101.24) mg/L | 72.36 (66.33–78.22) mg/L | 85.66 (75.71–97.28) mg/L |  |  |  |  | 
